Assays:
Format in all cases: cell-based, mouse
TPPII = assay: Western blotting of TPPII expression in gamma-irradiated EL-4 cells; details: wortmannin treated gamma-irradiated EL-4 cells, 25 micro-M NLVS
From the text: (§1) Cells and Culture Conditions. EL-4 is a Benzpyrene-induced lymphoma cell line derived from the C57BI/6 mouse strain. EL-4.wt and EL-4.TPPII^i are EL-4 cells transfected with the pSUPER vector (Brummelkamp, T R, Bernards, R, Agami, R. A system for stable expression of short interfering RNAs in mammalian cells. Science 2002; 296:550-3), empty versus containing the siRNA directed against TPPII. HeLa cells are human cervical carcinoma cells. YAC-1 is a Moloney Leukemia Virus-induced lymphoma cell line derived from the A/Sn mouse strain. ALC is a T cell lymphoma induced by radiation leukemia virus D-RadLV, derived from the C57Bl/6 mouse strain. […]
(§2) Antibodies and Antisera. The following molecules were detected by the antibodies specified: Akt by rabbit anti-Akt serum (Cell Signaling Technology, Beverly, Mass.); Phospho-Akt (Ser 473) by 193H2 rabbit anti-phospho-Akt serum (Cell Signaling Technology, Beverly, Mass.); gamma-H2AX by rabbit anti-gamma-H2AX (Cell Signalling Technology, Beverly, Mass.); Mre11 by polyclonal rabbit anti-human Mre11 (Cell Signalling Technology, Beverly, Mass.); p21 by SX118 (R & D Systems, Minneapolis, Minn.); p53 (R & D Systems, Minneapolis, Minn.); Rae-1 by monoclonal Rat anti-mouse Rae-1, 199215 (R &D Systems, Minneapolis, Minn.); XIAP by monoclonal mouse anti-human XIAP, 117320 (R&D Systems, Minneapolis, Minn.). […]

p53 [1] = assay: Western blotting of p53 expression in gamma-irradiated EL-4.TPPIIi cells; details: gamma-irradiated EL-4.TPPIIi cells treated with NLVS
From the text: as §1, §2

p53 [2] = assay: Western blotting of p53-immunoprecipitates from EL-4 cell lysates; details: NLVS-treated EL-4.TPPIIi cells
From the text: Antibodies and Antisera. The following molecules were detected by the antibodies specified: Akt by rabbit anti-Akt serum (Cell Signaling Technology, Beverly, Mass.); Phospho-Akt (Ser 473) by 193H2 rabbit anti-phospho-Akt serum (Cell Signaling Technology, Beverly, Mass.); gamma-H2AX by rabbit anti-gamma-H2AX (Cell Signalling Technology, Beverly, Mass.); Mre11 by polyclonal rabbit anti-human Mre11 (Cell Signalling Technology, Beverly, Mass.); p21 by SX118 (R & D Systems, Minneapolis, Minn.); p53 (R & D Systems, Minneapolis, Minn.); Rae-1 by monoclonal Rat anti-mouse Rae-1, 199215 (R &D Systems, Minneapolis, Minn.); XIAP by monoclonal mouse anti-human XIAP, 117320 (R&D Systems, Minneapolis, Minn.). For detection of TPPII we used chicken anti-TPPII serum (Immunsystem, Uppsala, Sweden). Western blotting was performed by standard techniques. Protein concentration was measured by BCA Protein Assay Reagent (Pierce Chemical Co.). 5 micro-g of protein was loaded per lane for separation by SDS/PAGE unless stated otherwise.

## CC(C)C[C@@H](/C=C/S(C)(=O)=O)NC(=O)[C@H](CC(C)C)NC(=O)[C@H](CC(C)C)NC(=O)Cc1cc(I)c(O)c([N+](=O)[O-])c1 [NLVS, 4-hydroxy-5-iodo-3-nitrophenylacetyl-Leu-Leu-Leu-vinyl sulphone]
TPPII
  down regulation of TPPII: inhibited down regulation of TPPII
p53 [1]
  p53 expression: increased p53 expression
p53 [2]
  ATM, 53BP1 and Mre11 in p53-immunoprecipitates: failed to show ATM, 53BP1 and Mre11
